PubChem BioAssay AID179 (DTP/NCI, 2004)
The source made the active and inactive calls.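 Rule for the calls: active = compounds giving half or more protection of infected cells from virus-caused growth loss, again on retest; inactive = the rest.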

System: CEM cells HIV-1 protection, formazan growth assay
Experiment: NCI AIDS Antiviral Assay
Details: for IC50: measured here: growth of uninfected CEM cells
In short: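 Human CEM cells, uninfected and HIV-1-infected, received five drug concentrations, and growth was read by soluble formazan assay. Compounds giving at least 50% protection were retested; reproducible 100% protection defined confirmed active.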

CCOC(=O)C1C/C2=C(/CCCCCCCCCC2)SCCCS1 (configuration not stated)
EC50: > 200 µM
IC50: 26.9 µM

[N-]=[N+]=C(S(=O)(=O)O)S(=O)(=O)O
EC50: > 200 µM
IC50: > 200 µM

CCOC(=O)C1(c2ccccc2)C(=O)Oc2ccccc21 (configuration not stated)
EC50: 13.2 µM
IC50: 64.6 µM

COC(=O)[C@@]1(C(C)CC(=O)O)CCCCC1=O (some centres not stated)
EC50: > 1020 µM
IC50: 214 µM

COc1ccc(NC(=S)Nc2cc(C)ccn2)cc1
EC50: > 200 µM
IC50: > 200 µM

COc1cccc(C=O)c1[O-].[O]=[U](=[O])([OH2+])[OH2+]
EC50: > 79.4 µM
IC50: 39.8 µM

COc1cc2oc(=O)cc(C)c2c(OC)c1OC
EC50: > 200 µM
IC50: > 200 µM

CS(=O)(=O)OCCN1CCN(C(=O)c2ccc(Cl)c3c(Nc4ccc(S(=O)(=O)N=C(N)N)cc4)c4ccccc4nc23)CC1
EC50: > 33.9 µM
IC50: > 33.9 µM

C1=CC2=CC=CC3c4nc5ccc6ccccc6c5nc4C(=C1)C23 (configuration not stated)
EC50: > 200 µM
IC50: > 200 µM

C1C2CC3CC1CC(c1nn4c(C56CC7CC(CC(C7)C5)C6)nnc4s1)(C2)C3
EC50: > 200 µM
IC50: > 200 µM

NC(=O)C1=NOC(C(N)=O)C1C1OC(CO)C(O)C1O (configuration not stated)
EC50: > 200 µM
IC50: > 200 µM

CCCCCCCCCCCCCCCCCCNc1ccn(C2OC(COP(=O)(O)OCC(COP(=O)(O)OCC3OC(n4cc(C)c(=O)[nH]c4=O)CC3N=[N+]=[N-])OC(=O)CCCCCCCCCCCCCCC)C(O)C2O)c(=O)n1 (configuration not stated)
EC50: 11.2 µM
IC50: 69.2 µM

CC(=O)O[C@H]1CC[C@@]2(C)C(=CC[C@@H]3C2CC[C@]2(C)Nc4oncc4CC32)C1 (some centres not stated)
outcome: inactive

CCOC(OCC)c1ccc(C(F)(F)F)cc1.[C-]#[O+].[C-]#[O+].[C-]#[O+].[Cr]
EC50: > 20 µM
IC50: 3.02 µM

COC(=O)C1CC2c3c(c4ccccc4n3C)CC(C1=O)N2C (configuration not stated)
outcome: inactive

CS(=O)(=O)NNS(=O)(=O)c1ccc(Cl)cc1
EC50: > 126 µM
IC50: > 126 µM

CCOC(=O)C1(Cc2ccc3c(c2)CCC3)Cc2cc3c(cc2C1=O)CCC3 (configuration not stated)
EC50: > 200 µM
IC50: 23.4 µM

O=S(=O)(O)c1ccc(NN(c2c(O)ccc3ccccc23)S(=O)(=O)O)cc1
EC50: > 550 µM
IC50: 229 µM

Cc1cn(C2C[C@@H](/[N+]([O-])=C\c3ccccc3)C(CO[Si](C)(C)C(C)(C)C)O2)c(=O)[nH]c1=O (some centres not stated)
EC50: > 200 µM
IC50: 24.5 µM

O=C1CC23CC4CC(CC(C4)C2O1)C3 (configuration not stated)
EC50: > 200 µM
IC50: > 200 µM

NC(CC(C(=O)O)c1ccccc1)C(=O)O (configuration not stated)
EC50: > 200 µM
IC50: 112 µM

S=C(NCCc1ccccn1)c1nc[nH]c1C(=S)NCCc1ccccn1
EC50: > 200 µM
IC50: 19.1 µM

Cc1cc(C)nc(NS(=O)(=O)c2ccc(NC(=O)c3cccc4c(Nc5ccc(S(=O)(=O)Nc6nc(C)cc(C)n6)cc5)c5ccccc5nc34)cc2)n1
EC50: > 33.9 µM
IC50: 30.2 µM

COC(=O)c1ccc(C)cc1CC1Cc2ccc(C)cc2C1=O (configuration not stated)
EC50: > 200 µM
IC50: 4.79 µM

C[N+](C)(C)CCCC#CC[N+]1(C)CCc2ccccc2C1 (configuration not stated)
outcome: inactive

O=C1C=C2C(=NC34CCCCC3C(c3ccccc3)C3=C(c5ccccc5CC3)N24)c2ccccc21 (configuration not stated)
EC50: 186 µM
IC50: > 200 µM

CCOC(=O)CCCN(c1sc(C)c(-c2ccccc2)c1C(=O)OCC)S(=O)(=O)c1ccc(C)cc1
EC50: > 200 µM
IC50: 3.98 µM

COC(=O)c1ccccc1CC1Cc2ccc3c(c2C1=O)CCCC3 (configuration not stated)
EC50: > 200 µM
IC50: > 200 µM

COC(=O)C(C)(C)C(OP1(=S)OCCN1C)=C(C)C (configuration not stated)
EC50: > 117 µM
IC50: > 117 µM

CC(=O)c1cccc(C(C)=O)c1N=Cc1ccccc1
outcome: inactive

O=c1oc(-c2ccccc2Br)ns1
EC50: > 100 µM
IC50: 52.5 µM

N#CC(C#N)N=Cc1ccncc1
EC50: > 200 µM
IC50: 170 µM

CN(C)P(=O)(/C(N)=N/Nc1ccc([N+](=O)[O-])cc1)N(C)C
EC50: > 158 µM
IC50: 155 µM

CC(C)(C)NC(=O)C12C3C4C1C1C2C3C41C(=O)NC(C)(C)C (configuration not stated)
outcome: inactive

CCN1CN(c2ccccc2)C2(CCN(CCCSc3ccc(F)cc3)CC2)C1=O
EC50: > 200 µM
IC50: 10 µM

O=c1oc2ccccc2cc1/C=N/N1C(=S)N(c2ccccc2)C(=Nc2ccccc2)C1=Nc1ccccc1
EC50: > 200 µM
IC50: > 200 µM

Cc1ccccc1N1OS(=O)(=O)CC1(C#N)c1ccccc1 (configuration not stated)
EC50: > 83.2 µM
IC50: > 83.2 µM

O=[N+]1[C@H](c2ccccc2)[C@H](c2ccccc2)N1[O-]
EC50: > 200 µM
IC50: 11.5 µM

c1ccc(/C2=N\OCCCOc3ccccc32)cc1
EC50: > 200 µM
IC50: > 200 µM

CC1(C)COC(c2ccc(CC(O)c3ccccc3)cc2)=N1 (configuration not stated)
EC50: > 200 µM
IC50: 41.7 µM

C/C(C=C(C#N)C#N)=C\c1ccc(C)cc1
EC50: > 1200 µM
IC50: > 1200 µM

Fc1ccc(N=C2C=CC(=Nc3ccc(F)cc3)c3ccccc32)cc1
outcome: inactive

CCOP(=O)(/C=C/c1ccccc1)OCC
outcome: inactive

CCOC1(OCC)C([N+](=O)[O-])=CC(=[N+]([O-])O)C=C1[N+](=O)[O-]
EC50: > 724 µM
IC50: 204 µM

Cc1noc(NS(=O)(=O)c2ccc(NC(=O)c3ccc4nc5ccccc5c(Nc5ccc(S(=O)(=O)Nc6onc(C)c6C)cc5)c4c3)cc2)c1C
EC50: 63.1 µM
IC50: 110 µM

NCCn1ccc(NC(c2ccccc2)(c2ccccc2)c2ccccc2)nc1=O
EC50: > 91.2 µM
IC50: 45.7 µM

Cn1c(=O)c2nc(N3CCOCC3)cnc2n(C)c1=O
EC50: > 200 µM
IC50: > 200 µM

Cn1c2ccccc2c(=O)c2c(O)cc3c(c21)C1OCC(C)(O)C1O3 (configuration not stated)
EC50: > 200 µM
IC50: 33.9 µM

Cn1cc2c(n1)c(N/N=C/c1ccccc1)nn1nnnc21
EC50: > 89.1 µM
IC50: > 89.1 µM

CCOC(=O)c1c(N)sc2c1CCCCC2
EC50: > 95.5 µM
IC50: > 95.5 µM

CCOC1c2cc(OC)c(OC)cc2-c2ccc3ccccc3c2N1C (configuration not stated)
EC50: > 74.1 µM
IC50: 10.2 µM

CCCC/C=C(/CCCNC=O)[Si](C)(C)C
EC50: > 537 µM
IC50: > 537 µM

CC(=O)O[C@H]1[C@@H](OC2CCCC2(c2ccccc2)c2ccccc2)O[N+]([O-])=C[C@@]12COCc1cc3c(cc12)OCO3 (some centres not stated)
EC50: > 200 µM
IC50: 11.7 µM

COc1cc(-c2ccc(N=Nc3cc(S(=O)(=O)O)c4ccccc4c3N)c(OC)c2)ccc1N=Nc1cc(S(=O)(=O)O)c2ccccc2c1N
EC50: 13.2 µM
IC50: 155 µM

COc1ccc2c(c1)CCC1=CC3(CCC12C)SCCS3 (configuration not stated)
EC50: > 58.9 µM
IC50: 10.2 µM

COC(=O)c1ccc(C)cc1C1CN=NC12Cc1c(C)cccc1C2=O (configuration not stated)
EC50: > 200 µM
IC50: > 200 µM

CCc1c(O)c2c([nH]c1=O)SC(C)(C)CC2=NCC(C)C
EC50: > 11.5 µM
IC50: > 11.5 µM

O=C1CCC[C@]2(C1)Cc1ccccc1N2
EC50: > 468 µM
IC50: 288 µM

Clc1ccc(CCc2ccncn2)c(Cl)c1
EC50: > 398 µM
IC50: 38 µM

NC(CCSSCCC(N)C(=O)O)C(=O)O (configuration not stated)
EC50: > 19.5 µM
IC50: > 19.5 µM

COC(OC)/C(C)=N/NC1=Nc2ccc(Cl)cc2C(c2ccccc2Cl)=NC1
EC50: > 12.3 µM
IC50: > 12.3 µM

CC1=Nc2nc(=N)nc3cccc(n23)N1
EC50: > 200 µM
IC50: 170 µM

Brc1ccccc1C=NC12CC3CC(CC(C3)C1)C2
EC50: > 22.9 µM
IC50: > 22.9 µM

CC(C)=CCC1=C(O)C(=O)C(CC=C(C)C)=C(O)C1=O
EC50: > 83.2 µM
IC50: 43.7 µM

CC(C)C(Nc1c2ccccc2[n+](C)c2ccccc12)C(=O)O (configuration not stated)
outcome: inactive

Nc1c(-c2ccccc2[N+](=O)[O-])nc2ccccn12
EC50: > 513 µM
IC50: 120 µM

C=C1C(=O)OC2/C=C(\C=O)CC/C=C(\C)C(O)C[C@@H]12 (some centres not stated)
EC50: > 200 µM
IC50: 2.95 µM

CCCCCCCCCCCCCCCC(=O)OCC(COP(=O)(O)OCCNC(=O)CCSSc1ccccn1)OC(=O)CCCCCCCCCCCCCCC (configuration not stated)
EC50: > 50.1 µM
IC50: 37.2 µM

COc1ccc2c(c1)C(=O)N1CSCC1C(=O)S2 (configuration not stated)
EC50: > 200 µM
IC50: > 200 µM

COc1cc(O)c2c(=O)c3ccccc3n(C)c2c1
EC50: > 200 µM
IC50: 11.2 µM

CC(C)(C)OC(=O)N1CCC2(CC1)C(=O)NCN2c1ccccc1
EC50: > 200 µM
IC50: > 200 µM

CCP(=S)(CC)CCl
EC50: > 200 µM
IC50: > 200 µM

Nc1cc([As](=O)(O)O)ccn1
EC50: > 200 µM
IC50: > 200 µM

CC(C)N=C=NC(C)C
EC50: > 380 µM
IC50: > 380 µM

C=C1C(=O)O[C@@H]2[C@H]1CCC(C)=C1C=CC(=O)[C@]12C
outcome: inactive

COC1C(OC(=O)/C=C/C=C/C=C/C=C\C(=O)O)CCC2(CO2)C1C1(C)OC1CC=C(C)C (configuration not stated)
EC50: 49 µM
IC50: > 200 µM

OCC1CC(F)C(n2cnc3c(F)ncnc32)O1 (configuration not stated)
EC50: > 49 µM
IC50: 36.3 µM

Cc1nc(-c2nc(C)c(C(=O)/C=C/c3ccc(N(C)C)cc3)s2)sc1C(=O)/C=C/c1ccc(N(C)C)cc1
EC50: > 34.7 µM
IC50: > 34.7 µM

COC(=O)C1=C(C(=O)OC)SC(=C2c3ccsc3-c3sccc32)S1
EC50: > 200 µM
IC50: > 200 µM

CN1C(=O)NC2ON=C(c3ccccc3)C2C1=O (configuration not stated)
EC50: > 200 µM
IC50: 53.7 µM

OC1CSc2ccccc2-n2cccc21 (configuration not stated)
EC50: > 138 µM
IC50: 110 µM

Cn1c(=O)sc2cc(C(=S)N3CCN(c4ccccc4)CC3)ccc21
EC50: 87.1 µM
IC50: 107 µM

CCCCCc1cc2cc(O)cc(Oc3c(O)cc(O)c(C(=O)O)c3CCCCC)c2c(=O)o1
EC50: > 200 µM
IC50: 34.7 µM

CN1CCCC1c1cccnc1 (configuration not stated)
EC50: 77.6 µM
IC50: > 200 µM

Cc1nc(C)c2c(n1)Oc1ccc3ccccc3c1C2
EC50: > 49 µM
IC50: > 49 µM

Cc1cc(C)n(-c2nsc3ccccc23)n1
EC50: > 112 µM
IC50: > 112 µM

COc1ccccc1-n1c(C)nc2ccccc2c1=O
EC50: > 186 µM
IC50: > 186 µM

CC(C)(CNC(=O)/C(Cl)=C(/Cl)C(=O)O)CNC(=O)/C(Cl)=C(/Cl)C(=O)O
EC50: > 200 µM
IC50: 17 µM

COP1(=S)OCC2OC(n3cc(C)c(=O)[nH]c3=O)CC2O1 (configuration not stated)
EC50: > 100 µM
IC50: > 100 µM

COc1ccc(CCNC=O)cc1OC
outcome: inactive

CCOC(=O)c1ccc(CSc2ccc(OC)cc2)cc1
EC50: > 33.1 µM
IC50: 16.2 µM
